US10457709B2, “Antimicrobial peptides, their variants and uses” (priority 2015, dated 2019)
Converted amounts (≈) assume the structure as drawn. Read-outs that look alike come from different tables or passages of the source. Square brackets hold non-standard residues; d marks the D form. Peptide text beside a SMILES is read from it.

Legend:
[1] = test system: C. quillermondiae clinical strains; experiment: MIC, clinical yeast strains; assay type: cell-based, Candida quillermondiae; set-up: unit: μg/ml; conditions: C. quillermondiae clinical yeast strain 1
Method in brief: (§1)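 Broth microdilution in Mueller Hinton broth, inoculum adjusted to 5.0×10^5 cfu/ml, peptides tested at 0.125 to 128 μg/ml, 37° C for 20 to 24 hours. Yeast assays were run in potato dextrose broth. MIC was taken as the lowest concentration with no visible growth.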

[2] = test system: Streptococcus pneumoniae clinical strains; assay type: cell-based; set-up: Minimum inhibitory concentration: unit: μg/ml; conditions: microdilution, Muller Hinton broth-cation adjusted, 0.02% BSA, 0.2% acetic acid
Method in brief: as §1

[3] = test system: Enterobacter cloacae clinical strains; assay type: cell-based; set-up: Minimum inhibitory concentration: unit: μg/ml; conditions: microdilution, Muller Hinton broth-cation adjusted, 0.02% BSA, 0.2% acetic acid
Method in brief: as §1

[4] = test system: Serratia marcescens clinical strains; assay type: cell-based; set-up: Minimum inhibitory concentration: unit: μg/ml; conditions: microdilution, Muller Hinton broth-cation adjusted, 0.02% BSA, 0.2% acetic acid
Method in brief: as §1

[5] = test system: Acinetobacter baumannii clinical strains; assay type: cell-based; set-up: Minimum inhibitory concentration: unit: μg/ml; conditions: microdilution, Muller Hinton broth-cation adjusted, 0.02% BSA, 0.2% acetic acid
Method in brief: as §1

[6] = test system: Proteus mirabilis clinical strains; assay type: cell-based; set-up: Minimum inhibitory concentration: unit: μg/ml; conditions: microdilution, Muller Hinton broth-cation adjusted, 0.02% BSA, 0.2% acetic acid
Method in brief: as §1

[7] = test system: Staphylococcus aureus clinical strains; assay type: cell-based; set-up: Minimum inhibitory concentration: unit: μg/ml; conditions: microdilution, Muller Hinton broth-cation adjusted, 0.02% BSA, 0.2% acetic acid
Method in brief: as §1

[8] = test system: Escherichia coli clinical strains; assay type: cell-based; conditions: for Minimum inhibitory concentration: microdilution, Muller Hinton broth-cation adjusted, 0.02% BSA, 0.2% acetic acid
Method in brief: as §1

[9] = test system: Klebsiella pneumoniae clinical strains; assay type: cell-based; conditions: microdilution, Muller Hinton broth-cation adjusted, 0.02% BSA, 0.2% acetic acid
Method in brief: as §1

[10] = test system: Pseudomonas aeruginosa clinical strains; assay type: cell-based; conditions: microdilution, Muller Hinton broth-cation adjusted, 0.02% BSA, 0.2% acetic acid
Method in brief: as §1

[11] = test system: Acinetobacter johnsonii clinical strains; assay type: cell-based; conditions: Acinetobacter johnsonii clinical strain 1; microdilution, Muller Hinton broth-cation adjusted, 0.02% BSA, 0.2% acetic acid
Method in brief: as §1

[12] = test system: all the bacteria and yeasts tested; assay type: cell-based
Method in brief: as §1

[13] = test system: Candida albicans clinical strains; experiment: MIC, clinical yeast strains; assay type: cell-based; set-up: unit: μg/ml
Method in brief: as §1

[14] = test system: C. parapsilosis clinical strains; experiment: MIC, clinical yeast strains; assay type: cell-based, Candida parapsilosis; set-up: unit: µg/ml
Method in brief: as §1

[15] = test system: C. glabrata clinical strains; experiment: MIC, clinical yeast strains; assay type: cell-based, Candida glabrata; set-up: unit: µg/ml
Method in brief: as §1

In the case of `CC(C)C[C@@H](NC(=O)[C@H](N)CCCNC(=N)N)C(=O)N[C@H](CCCCN)C(=O)N[C@H](CCCNC(=N)N)C(=O)N[C@H](Cc1c[nH]c2ccccc12)C(=O)N[C@H](CCCNC(=N)N)C(=O)N[C@H](CC(C)C)C(=O)N[C@H](Cc1ccccc1)C(=O)N[C@H](CCCNC(=N)N)C(=O)N[C@H](CCCCN)C(=O)N[C@H](CCCNC(=N)N)C(=O)O` [Chain306D] (H-[dR][dL][dK][dR][dW][dR][dL][dF][dR][dK][dR]-OH), the Minimum inhibitory concentration [1] is reported as 4, the Minimum inhibitory concentration ([2]; Streptococcus pneumoniae clinical strain 1) is reported as 64 and the Minimum inhibitory concentration ([2]; Streptococcus pneumoniae clinical strain 2) is reported as 64. It also gave a Minimum inhibitory concentration ([2]; Streptococcus pneumoniae clinical strain 3) of 64, a Minimum inhibitory concentration ([2]; Streptococcus pneumoniae clinical strain 4) of 128 and a Minimum inhibitory concentration ([2]; Streptococcus pneumoniae clinical strain 5) of 64. The Minimum inhibitory concentration ([3]; Enterobacter cloacae clinical strain 1) was 64, the Minimum inhibitory concentration ([3]; Enterobacter cloacae clinical strain 2) was 64 and the Minimum inhibitory concentration ([3]; Enterobacter cloacae clinical strain 3) was 32. The Minimum inhibitory concentration ([3]; Enterobacter cloacae clinical strain 4) was 16, the Minimum inhibitory concentration ([3]; Enterobacter cloacae clinical strain 5) was 16 and the Minimum inhibitory concentration ([4]; Serratia marcescens clinical strain 1) was >128. The Minimum inhibitory concentration ([4]; Serratia marcescens clinical strain 2) was >128, the Minimum inhibitory concentration ([4]; Serratia marcescens clinical strain 3) was >128 and the Minimum inhibitory concentration ([4]; Serratia marcescens clinical strain 4) was >128. The Minimum inhibitory concentration ([4]; Serratia marcescens clinical strain 5) was >128, the Minimum inhibitory concentration ([5]; Acinetobacter baumannii clinical strain 1) was 16 and the Minimum inhibitory concentration ([5]; Acinetobacter baumannii clinical strain 2) was 32. For the same compound, the Minimum inhibitory concentration ([5]; Acinetobacter baumannii clinical strain 3) was 16, the Minimum inhibitory concentration ([5]; Acinetobacter baumannii clinical strain 4) was 16 and the Minimum inhibitory concentration ([5]; Acinetobacter baumannii clinical strain 5) was 8. For the same compound, the Minimum inhibitory concentration ([6]; Proteus mirabilis clinical strain 1) was >128, the Minimum inhibitory concentration ([6]; Proteus mirabilis clinical strain 2) was >128 and the Minimum inhibitory concentration ([6]; Proteus mirabilis clinical strain 3) was >128. The Minimum inhibitory concentration ([6]; Proteus mirabilis clinical strain 4) was >128, the Minimum inhibitory concentration ([6]; Proteus mirabilis clinical strain 5) was >128 and the Minimum inhibitory concentration ([7]; Staphylococcus aureus clinical strain 1) was 16. It also gave a Minimum inhibitory concentration ([7]; Staphylococcus aureus clinical strain 2) of 32, a Minimum inhibitory concentration ([7]; Staphylococcus aureus clinical strain 3) of 32 and a Minimum inhibitory concentration ([7]; Staphylococcus aureus clinical strain 4) of 16. The Minimum inhibitory concentration ([7]; Staphylococcus aureus clinical strain 5) was 8, the Minimum inhibitory concentration ([8]; Escherichia coli clinical strain 1) was 1 and the Minimum inhibitory concentration ([8]; Escherichia coli clinical strain 2) was 2. It also gave a Minimum inhibitory concentration ([8]; Escherichia coli clinical strain 3) of 2, a Minimum inhibitory concentration ([8]; Escherichia coli clinical strain 4) of 2 and a Minimum inhibitory concentration ([8]; Escherichia coli clinical strain 5) of 2. For the same compound, the “MIC against E. coli” value ([8]; clinical strains) was 1 µg/mL (≈ 0.619 µM), the Minimum inhibitory concentration ([9]; Klebsiella pneumoniae clinical strain 1) was 128 and the Minimum inhibitory concentration ([9]; Klebsiella pneumoniae clinical strain 2) was >128. For the same compound, the Minimum inhibitory concentration ([9]; Klebsiella pneumoniae clinical strain 3) was >128, the Minimum inhibitory concentration ([9]; Klebsiella pneumoniae clinical strain 4) was 64 and the Minimum inhibitory concentration ([9]; Klebsiella pneumoniae clinical strain 5) was 64. The Minimum inhibitory concentration ([10]; Pseudomonas aeruginosa clinical strain 1) was 128, the Minimum inhibitory concentration ([10]; Pseudomonas aeruginosa clinical strain 2) was >128 and the Minimum inhibitory concentration ([10]; Pseudomonas aeruginosa clinical strain 3) was 128. For the same compound, the Minimum inhibitory concentration ([10]; Pseudomonas aeruginosa clinical strain 4) was >128, the Minimum inhibitory concentration ([10]; Pseudomonas aeruginosa clinical strain 5) was 128 and the Minimum inhibitory concentration [11] was 16. For the same compound, the “MIC against the rest of the bacterial strains” value [12] was > 32 µg/mL, the Minimum inhibitory concentration ([13]; Candida albicans clinical yeast strain 1) was 16 and the Minimum inhibitory concentration ([13]; Candida albicans clinical yeast strain 2) was 8. It also gave a Minimum inhibitory concentration ([13]; Candida albicans clinical yeast strain 3) of 8, a Minimum inhibitory concentration ([13]; Candida albicans clinical yeast strain 4) of 16 and a Minimum inhibitory concentration ([13]; Candida albicans clinical yeast strain 5) of 16. For the same compound, the Minimum inhibitory concentration ([14]; C. parapsilosis clinical yeast strain 1) was 8, the Minimum inhibitory concentration ([14]; C. parapsilosis clinical yeast strain 2) was 16 and the Minimum inhibitory concentration ([14]; C. parapsilosis clinical yeast strain 3) was 16. For the same compound, the Minimum inhibitory concentration ([14]; C. parapsilosis clinical yeast strain 4) was 4, the Minimum inhibitory concentration ([15]; C. glabrata clinical yeast strain 1) was 8 and the Minimum inhibitory concentration ([15]; C. glabrata clinical yeast strain 2) was 8. For the same compound, the Minimum inhibitory concentration ([15]; C. glabrata clinical yeast strain 3) was 16 and the Minimum inhibitory concentration ([15]; C. glabrata clinical yeast strain 4) was 32.
